Source: patent US20080207645A1, “Pyridothienopyrimidine Derivatives” (priority 2004, published 2008)

System: PDE4
Test: PDE4 Assay Procedure ([3H]-cAMP SPA)
Assay type: biochemical
Details: 15 nM [3H]-cAMP, 1 hour at room temperature, SPA beads
Description: Compounds to be tested were resuspended in DMSO at a stock concentration of 1 mM. […] These dilutions were done in 96-well plates. In some cases, plates containing diluted compounds were frozen before being assayed. In these cases, the plates were thawed at room temperature and stirred for 15 minutes.
Ten microliters of the diluted compounds were poured into a “low binding” assay plate. […] The reaction was initiated by adding ten microliters of a solution containing PDE4. The plate was then incubated under stirring for 1 hour at room temperature. After incubation the reaction was stopped with 50 microlitres of SPA beads, and the reaction was allowed to incubate for another 20 minutes at room temperature before measuring radioactivity using standard instrumentation.
The reaction mixture was prepared by adding 90 ml of H2O to 10 ml of 10× assay buffer (500 mM Tris pH 7.5, 83 mM MgCl2, 17 mM EGTA), and 40 microlitres 1 μCi/μL [3H]-cAMP. SPA beads solution was prepared by adding 500 mg to […] H2O for a final concentration of 20 mg/ml beads and 18 mM zinc sulphate.

`CC1(C)Cc2c(c(N3CCCC3)nc3sc4c(NCCN5CCOCC5)ncnc4c23)CO1` [Example 27, 2,2-Dimethyl-5-pyrrolidin-1-yl-N-(2-morpholin-4-ylethyl)-1,4-dihydro-2H-pyrano[4″,3″:4′,5′]pyrido[3′,2′:4,5]thieno[3,2-d]pyrimidin-8-amine] and `CC1(C)Cc2c(c(N3CCOCC3)nc3sc4c(NCCN5CCOCC5)ncnc4c23)CO1` [Example 20, 2,2-Dimethyl-5-morpholin-4-yl-N-(2-morpholin-4-ylethyl)-1,4-dihydro-2H-pyrano[4″,3″:4′,5′]pyrido[3′,2′:4,5]thieno[3,2-d]pyrimidin-8-amine] are within 1.5-fold of each other in IC50: 23 nM for the first, 26 nM for the second.

First: COCCN(C)c1nc2sc3c(NCc4cccnc4)ncnc3c2c2c1COC(C)(C)C2 [Example 59, N-(2-Methoxyethyl)-N,2,2-trimethyl-N-(pyridin-3-ylmethyl)-1,4-dihydro-2H-pyrano[4″,3″:4′,5′]pyrido[3′,2′:4,5]thieno[3,2-d]pyrimidine-5,8-diamine.]
Second: CCCc1nc2sc3c(NCc4cccnc4)ncnc3c2c2c1COC(C)(C)C2 [Example 72, 2,2-Dimethyl-5-propyl-N-(pyridin-3-ylmethyl)-1,4-dihydro-2H-pyrano[4″,3″:4′,5′]pyrido[3′,2′:4,5]thieno[3,2-d]pyrimidin-8-amine]
The IC50 of the first is 2.5-fold higher: 61 nM for the first, 24 nM for the second. The second is the more potent here.

`CCCc1nc2sc3c(NCCN4CCOCC4)ncnc3c2c2c1COC(C)(C)C2` [Example 38, 2,2-dimethyl-N-(2-morpholin-4-ylethyl)-5-propyl-1,4-dihydro-2H-pyrano[4″,3″:4′,5′]pyrido[3′,2′:4,5]thieno[3,2-d]pyrimidin-8-amine] and `CC1(C)Cc2c(c(N3CCOCC3)nc3sc4c(NCc5ccccn5)ncnc4c23)CO1` [Example 37, 2,2-dimethyl-5-morpholin-4-yl-N-(pyridin-2-ylmethyl)-1,4-dihydro-2H-pyrano[4″,3″:4′,5′]pyrido[3′,2′:4,5]thieno[3,2-d]pyrimidin-8-amine] are within 1.5-fold of each other in IC50: 19 nM for the first, 21 nM for the second.

First: CC1(C)Cc2c(c(N3CCOCC3)nc3sc4c(NCc5cccnc5)ncnc4c23)CO1 [Example 36, 2,2-dimethyl-5-morpholin-4-yl-N-(pyridin-3-ylmethyl)-1,4-dihydro-2H-pyrano[4″,3″:4′,5′]pyrido[3′,2′:4,5]thieno[3,2-d]pyrimidin-8-amine]
Second: CCC1(C)Cc2c(c(N3CCOCC3)nc3sc4c(NCc5cccnc5)ncnc4c23)CO1 (stereo not drawn) [Example 80, 2-Ethyl-2-methyl-5-morpholin-4-yl-N-(pyridin-3-ylmethyl)-1,4-dihydro-2H-pyrano[4″,3″:4′,5′]pyrido[3′,2′:4,5]thieno[3,2-d]pyrimidin-8-amine]
The IC50 of the first is 2.8-fold lower: 4.6 nM for the first, 13 nM for the second. The first is the more potent here.

Compared with `CC1(C)Cc2c(c(N3CCCC3)nc3sc4c(NCc5ccncc5)ncnc4c23)CO1` [Example 71, 2,2-Dimethyl-N-(pyridin-4-ylmethyl)-5-pyrrolidin-1-yl-1,4-dihydro-2H-pyrano[4″,3″:4′,5′]pyrido[3′,2′:4,5]thieno[3,2-d]pyrimidin-8-amine], `CC1(C)Cc2c(c(N3CCOCC3)nc3sc4c(NCc5ccncc5)ncnc4c23)CO1` [Example 55, 2,2-Dimethyl-5-morpholin-4-yl-N-(pyridin-4-ylmethyl)-1,4-dihydro-2H-pyrano[4″,3″:4′,5′]pyrido[3′,2′:4,5]thieno[3,2-d]pyrimidin-8-amine] is 1.7-fold lower in IC50: 32 nM for the first, 19 nM for the second. The second is the more potent here.

Compared with `CC(C)Cc1nc2sc3c(NCc4cccnc4)ncnc3c2c2c1COC(C)(C)C2` [Example 74, 5-Isobutyl-2,2-dimethyl-N-(pyridin-3-ylmethyl)-1,4-dihydro-2H-pyrano[4″,3″:4′,5′]pyrido[3′,2′:4,5]thieno[3,2-d]pyrimidin-8-amine], `CC(C)c1nc2sc3c(NCc4ccccn4)ncnc3c2c2c1COC(C)(C)C2` [Example 46, 2,2-Dimethyl-5-isopropyl-N-(pyridin-2-ylmethyl)-1,4-dihydro-2H-pyrano[4″,3″:4′,5′]pyrido[3′,2′:4,5]thieno[3,2-d]pyrimidin-8-amine] is 1.6-fold lower in IC50: 22 nM for the first, 14 nM for the second.
